# According to patent US20260091011A1, “HYDROALCOHOLIC SINGLE PHASE GEL COMPOSITIONS FOR TOPICAL DELIVERY OF DICLOFENAC” (HALEON CH SARL, priority 2022, published 2026):
# Test: Cumulative skin permeation study in a 3 ml permeation cell (Example 2)
# Type: in vitro ADME, human
# Conditions: 2% w/w diclofenac sodium hydroalcoholic gels
# Experimental: In a cumulative skin permeation study in a 3 ml permeation cell, cumulative permeation through a skin sample from a human donor was studied. Five different compositions were tested in six replicates. Cumulative permeation was measured at 4 hours (hrs) and at 24 hrs after application of a dose. However, cumulative permeation at 4 hrs was below the measurement threshold in this experiment and thus is not reported for Example 2. All formulations were applied in a dose of 6 microlitres onto skin sample of a defined surface area. The following formulations were studied: […]
row,Substance,effect of non-ionic emulsifier on cumulative permeation of diclofenac at 24 hrs
1,macrogol cetostearyl ether 20 [Kolliphor CS 20],more pronounced
2,Polysorbate 20 [Kolliphor PS 20],permeation retarding effect
